Test results reported in US20100204203A1, “Chemical Compounds 637: Pyridopyrimidinediones as PDE4 Inhibitors” (priority 2007, published 2010).

target: recombinant Human Phosphodiesterase B2 (PDE4B2) (Homo sapiens, UniProt Q07343); assay: Human Phosphodiesterase B2 Radiometric Assay (yttrium silicate SPA beads, [3H]cyclic AMP); format: biochemical; conditions: recombinant human PDE4B2, radiometric SPA assay, 8 nM [3H]cyclic AMP; read-out: PDE4B2 pIC50 (converted)
Procedure, shortened: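 Compounds were preincubated 30 min at 30 °C with 0.1 mg/mL PDE4B2 in 50 mM HEPES pH 7.5, 8.3 mM MgCl2, 1.7 mM EGTA, 0.01% Brij 35. Then 8 nM [3H]cAMP was added for 20 min, stopped with yttrium silicate SPA beads plus 18 mM ZnSO4 capturing product 5′AMP; pIC50 by curve fitting.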

recombinant Human Phosphodiesterase B2 (PDE4B2), sequence (Q07343 1-564 isoform Q07343-2): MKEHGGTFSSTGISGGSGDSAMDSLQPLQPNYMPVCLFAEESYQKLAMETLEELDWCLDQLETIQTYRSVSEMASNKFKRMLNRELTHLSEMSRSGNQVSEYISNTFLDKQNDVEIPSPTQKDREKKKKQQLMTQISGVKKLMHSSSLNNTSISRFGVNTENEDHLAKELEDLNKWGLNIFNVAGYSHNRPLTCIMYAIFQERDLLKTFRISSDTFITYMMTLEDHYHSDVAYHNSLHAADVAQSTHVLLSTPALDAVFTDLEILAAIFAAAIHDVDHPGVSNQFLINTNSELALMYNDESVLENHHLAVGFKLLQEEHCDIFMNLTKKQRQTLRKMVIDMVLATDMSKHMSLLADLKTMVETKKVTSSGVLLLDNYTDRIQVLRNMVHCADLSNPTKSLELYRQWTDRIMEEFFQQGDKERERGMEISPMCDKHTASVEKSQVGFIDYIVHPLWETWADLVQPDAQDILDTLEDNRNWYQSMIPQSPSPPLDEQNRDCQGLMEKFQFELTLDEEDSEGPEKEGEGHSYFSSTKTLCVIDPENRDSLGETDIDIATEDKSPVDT

| Structure (SMILES) | IC50 [nM] |
| --- | --- |
| CCN(CC)CCOc1ccc(CN(C(C)=O)[C@H]2CC[C@@H](n3c(=O)c4cc(F)cnc4n(-c4cccc(-c5ccc(CN6CCN(C(C)C)CC6)cc5)c4)c3=O)CC2)cc1 [Example 340, N-{4-[2-(diethylamino)ethoxy]benzyl}-N-{cis-4-[6-fluoro-1-{4′-[(4-isopropylpiperazin-1-yl)methyl]biphenyl-3-yl}-2,4-dioxo-1,4-dihydropyrido[2,3-d]pyrimidin-3 (2H)-yl]cyclohexyl}acetamide] | 1.58 |
| CC(=O)n1cc(CN(Cc2cn(C(C)=O)c3ccccc23)[C@H]2CC[C@@H](n3c(=O)c4cc(F)cnc4n(-c4cccc(-c5ccc(CN6CCN(C(C)C)CC6)cc5)c4)c3=O)CC2)c2ccccc21 [Example 341, 3-(cis-4-{bis[(1-acetyl-1H-indol-3-yl)methyl]amino}cyclohexyl)-6-fluoro-1-{4′-[(4-isopropylpiperazin-1-yl)methyl]biphenyl-3-yl}pyrido[2,3-d]pyrimidine-2,4(1H,3H)-dione] | 0.501 |
| CC(C)NCCOc1ccc(-c2cccc(-n3c(=O)n([C@H]4CC[C@@H](NC(=O)c5cn6cc(F)ccc6n5)CC4)c(=O)c4cc(F)cnc43)c2)cc1 [Example 342] | 0.0316 |
| CN(C)Cc1ccc(-c2cccc(-n3c(=O)n([C@H]4CC[C@@H](NCc5cn6ccccc6n5)CC4)c(=O)c4cc(F)cnc43)c2)cc1 [Example 343, 1-{4′-[(dimethylamino)methyl]biphenyl-3-yl}-6-fluoro-3-{cis-4-[(imidazo[1,2-a]pyridin-2-ylmethyl)amino]cyclohexyl}pyrido[2,3-d]pyrimidine-2,4(1H,3H)-dione] | 2 |
| NC1(C(=O)N[C@H]2CC[C@@H](n3c(=O)c4cc(F)cnc4n(-c4cccc(-c5ccccc5)c4)c3=O)CC2)CC1 [Example 344, 1-amino-N-[cis-4-(1-biphenyl-3-yl-6-fluoro-2,4-dioxo-1,4-dihydropyrido[2,3-d]pyrimidin-3(2H)-yl)cyclohexyl]cyclopropanecarboxamide] | 0.398 |
| O=C(N[C@H]1CC[C@@H](n2c(=O)c3cc(F)cnc3n(-c3cccc(-c4ccc(CC5CCNCC5)cc4)c3)c2=O)CC1)c1cn2cc(F)ccc2n1 [Example 345, 6-fluoro-N-{cis-4-[6-fluoro-2,4-dioxo-1-[4′-(piperidin-4-ylmethyl)biphenyl-3-yl]-1,4-dihydropyrido[2,3-d]pyrimidin-3(2H)-yl]cyclohexyl}imidazo[1,2-a]pyridine-2-carboxamide] | 0.0316 |
| O=c1c2cc(F)cnc2n(-c2cccc(-c3cccc(O)c3CN3CCOCC3)c2)c(=O)n1[C@H]1CC[C@@H](NCc2cn3cc(F)ccc3n2)CC1 [Example 346, 6-Fluoro-3-(cis-4-{[(6-fluoroimidazo[1,2-a]pyridin-2-yl)methyl]amino}cyclohexyl)-1-[3′-hydroxy-2′-(morpholin-4-ylmethyl)biphenyl-3-yl]pyrido[2,3-d]pyrimidine-2,4(1H,3H)-dione] | 0.126 |

Second part, the molecule after the results:

| IC50 [nM] | Structure (SMILES) |
| --- | --- |
| 0.0251 | Cc1cc(C(=O)N[C@H]2CC[C@@H](n3c(=O)c4cc(F)cnc4n(-c4cccc(-c5ccc(O)cc5CN(C)C)c4)c3=O)CC2)nn1C [Example 348, N-{cis-4-[1-{2′-[(dimethylamino)methyl]-4′-hydroxybiphenyl-3-yl}-6-fluoro-2,4-dioxo-1,4-dihydropyrido[2,3-d]pyrimidin-3(2H)-yl]cyclohexyl}-1,5-dimethyl-1H-pyrazole-3-carboxamide] |
| 0.02 | Cc1nc(C(=O)N[C@H]2CC[C@@H](n3c(=O)c4cc(F)cnc4n(-c4cccc(-c5ccc(CN6CCCNCC6)cc5)c4)c3=O)CC2)cs1 [Example 349, N-{cis-4-[1-[4′-(1,4-diazepan-1-ylmethyl)biphenyl-3-yl]-6-fluoro-2,4-dioxo-1,4-dihydropyrido[2,3-d]pyrimidin-3(2H)-yl]cyclohexyl}-2-methyl-1,3-thiazole-4-carboxamide] |
| 0.0158 | O=C(N[C@H]1CC[C@@H](n2c(=O)c3cc(F)cnc3n(-c3cccc(-c4ccc(CN5CCCNCC5)cc4)c3)c2=O)CC1)c1ccc2ccccc2n1 [Example 350, N-{cis-4-[1-[4′-(1,4-diazepan-1-ylmethyl)biphenyl-3-yl]-6-fluoro-2,4-dioxo-1,4-dihydropyrido[2,3-d]pyrimidin-3(2H)-yl]cyclohexyl} quinoline-2-carboxamide] |
| 0.0316 | CCCCc1ccc(C(=O)N[C@H]2CC[C@@H](n3c(=O)c4cc(F)cnc4n(-c4cccc(-c5ccc(CN6CCCNCC6)cc5)c4)c3=O)CC2)nc1 [Example 351, 5-butyl-N-{cis-4-[1-[4′-(1,4-diazepan-1-ylmethyl)biphenyl-3-yl]-6-fluoro-2,4-dioxo-1,4-dihydropyrido[2,3-d]pyrimidin-3(2H)-yl]cyclohexyl}pyridine-2-carboxamide] |
| 0.0158 | O=C(N[C@H]1CC[C@@H](n2c(=O)c3cc(F)cnc3n(-c3cccc(-c4ccc(CN5CCCNCC5)cc4)c3)c2=O)CC1)c1cnc2ccccc2n1 [Example 352, N-{cis-4-[1-[4′-(1,4-diazepan-1-ylmethyl)biphenyl-3-yl]-6-fluoro-2,4-dioxo-1,4-dihydropyrido[2,3-d]pyrimidin-3(2H)-yl]cyclohexyl} quinoxaline-2-carboxamide] |
| 0.0316 | O=C(N[C@H]1CC[C@@H](n2c(=O)c3cc(F)cnc3n(-c3cccc(-c4ccc(CN5CCCNCC5)cc4)c3)c2=O)CC1)c1cc2ccccc2cn1 [Example 353, N-{cis-4-[1-[4′-(1,4-diazepan-1-ylmethyl)biphenyl-3-yl]-6-fluoro-2,4-dioxo-1,4-dihydropyrido[2,3-d]pyrimidin-3(2H)-yl]cyclohexyl} isoquinoline-3-carboxamide] |
| 0.0398 | O=C(N[C@H]1CC[C@@H](n2c(=O)c3cc(F)cnc3n(-c3cccc(-c4ccc(CN5CCCNCC5)cc4)c3)c2=O)CC1)c1nc2ccccc2[nH]1 [Example 354, N-{cis-4-[1-[4′-(1,4-diazepan-1-ylmethyl)biphenyl-3-yl]-6-fluoro-2,4-dioxo-1,4-dihydropyrido[2,3-d]pyrimidin-3(2H)-yl]cyclohexyl}-1H-benzimidazole-2-carboxamide] |
| 0.0501 | O=C(N[C@H]1CC[C@@H](n2c(=O)c3cc(F)cnc3n(-c3cccc(-c4ccc(CN5CCCNCC5)cc4)c3)c2=O)CC1)c1cc(=O)c2ccccc2[nH]1 [Example 355, N-{cis-4-[1-[4′-(1,4-diazepan-1-ylmethyl)biphenyl-3-yl]-6-fluoro-2,4-dioxo-1,4-dihydropyrido[2,3-d]pyrimidin-3(2H)-yl]cyclohexyl}-4-oxo-1,4-dihydroquinoline-2-carboxamide] |
| 0.0631 | Cc1cccc(C(=O)N[C@H]2CC[C@@H](n3c(=O)c4cc(F)cnc4n(-c4cccc(-c5ccc(CN6CCCNCC6)cc5)c4)c3=O)CC2)n1 [Example 356, N-{cis-4-[1-[4′-(1,4-diazepan-1-ylmethyl)biphenyl-3-yl]-6-fluoro-2,4-dioxo-1,4-dihydropyrido[2,3-d]pyrimidin-3(2H)-yl]cyclohexyl}-6-methylpyridine-2-carboxamide] |
| 0.0316 | Cc1nc(C(=O)N[C@H]2CC[C@@H](n3c(=O)c4cc(F)cnc4n(-c4cccc(-c5ccc(CN6CCC(N7CCCCC7)CC6)cc5)c4)c3=O)CC2)cs1 [Example 357, N-{cis-4-[1-[4′-(1,4′-bipiperidin-1′-ylmethyl)biphenyl-3-yl]-6-fluoro-2,4-dioxo-1,4-dihydropyrido[2,3-d]pyrimidin-3(2H)-yl]cyclohexyl}-2-methyl-1,3-thiazole-4-carboxamide] |
